Test results taken from patent US6476079B1, “Devices for the delivery of drugs having antiprogestinic properties” (priority 1999, dated 2002).

Test: Permeation test of antiprogestins through elastomer membranes (two-compartment diffusion cell)
Type: physicochemical
Details: 37° C.
Method: The assay apparatus described in the publication Yie W. Chien, Transdermal Controlled Systemic Medications, Marcel Dekker Inc., New York and Basel 1987, page 173, was used in the tests.
The drug fluxes (permeations) through membranes were measured with a two-compartment diffusion cell at 37° C. (Side-Bi-Side™ diffusion cell, Crown Glass Company). The apparatus consisted of two concentric cells (donor and receptor compartments) that were separated by the elastomer membrane to be investigated. […] A drug solution and solvent (without drug) was added into the donor and the receptor compartments. At each predetermined time interval, samples were withdrawn from the receptor compartment and replaced with the same volume of solvent. The amount of the drug that permeated through the membrane was measured by HPLC. In all measurements, the thickness (0.4 mm) of the membrane and the surface area of the membranes were constant.
In the tests described below, the permeation rates of two different drugs through a 0.4-mm-thick elastomer membrane were measured by using the assay apparatus described above. The tables below show the effect of the concentration of PEO groups (% by weight of the said compositions) on the permeation rates of the different drugs for elastomers prepared from different composition types. The tables show the relative permeation as compared with a commercial crosslinked dimethyl siloxane-vinyl methyl siloxane elastomer (Mn approximately 400,000 g/mol) containing a silica filler.

[1] = composition type A, PEO concentration 4.7 % by weight, 0.4 mm membrane, relative to reference elastomer
[2] = composition type A, PEO concentration 5.1 % by weight, 0.4 mm membrane, relative to reference elastomer
[3] = reference membrane: commercial crosslinked dimethyl siloxane-vinyl methyl siloxane elastomer with silica filler, PEO 0 % by weight, 0.4 mm
[4] = composition type B, PEO concentration 3.1 % by weight, 0.4 mm membrane, relative to reference elastomer
[5] = composition type B, PEO concentration 4.1 % by weight, 0.4 mm membrane, relative to reference elastomer
[6] = composition type B, PEO concentration 5.0 % by weight, 0.4 mm membrane, relative to reference elastomer
[7] = composition type B, PEO concentration 7.5 % by weight, 0.4 mm membrane, relative to reference elastomer
[8] = composition type B, PEO concentration 9.8 % by weight, 0.4 mm membrane, relative to reference elastomer

| Compound | Relative permeation [1] | Relative permeation [2] | Relative permeation [3] | Relative permeation [4] | Relative permeation [5] | Relative permeation [6] | Relative permeation [7] | Relative permeation [8] | Relative permeation (composition type B, PEO concentration 1.4 % by weight, 0.4 mm membrane, relative to reference elastomer) | Relative permeation (composition type A, PEO concentration 5.3 % by weight, 0.4 mm membrane, relative to reference elastomer) |
| --- | --- | --- | --- | --- | --- | --- | --- | --- | --- | --- |
| COC[C@]1(OC)CC[C@H]2[C@@H]3CCC4=CC(=O)CCC4=C3[C@@H](c3ccc(/C=N/O)cc3)C[C@@]21C [Compound 1, 4-[17β-methoxy-17α-(methoxymethyl)-3-oxoestra-4,9-dien-11β-yl]benzaldehyde-1-(E)-oxime] | 3.5 | 5.3 | 1 | – | – | – | – | – | – | – |
| CCNC(=O)ON=Cc1ccc(C2CC3(C)C(CCC3(COC)OC)C3CCC4=CC(=O)CCC4=C23)cc1 (stereo not drawn) [Compound 2, 4-[17β-Methoxy-17α-(methoxymethyl)-3-oxoestra-4,9-dien-11β-yl]benzaldehyde-1-[O-(ethylamino)carbonyl]oxime] | 4.1 | 7.6 | 1 | 3.7 | 4.1 | 5.8 | 11.5 | 17.3 | – | – |
| CCSC(=O)O/N=C/c1ccc([C@H]2C[C@@]3(C)[C@@H](CC[C@@]3(COC)OC)[C@@H]3CCC4=CC(=O)CCC4=C32)cc1 [Compound 3] | – | – | 1 | – | – | – | – | 6.4 | 2.1 | – |
| CC(=O)c1ccc([C@H]2C[C@@]3(C)[C@@H](CC[C@@]3(O)C(F)(F)C(F)(F)F)[C@@H]3CCC4=CC(=O)CCC4=C32)cc1 [Compound 4, 11β-(4-Acetylphenyl)-17β-hydroxy-17α-(1,1,2,2,2-pentafluoroethyl)estra-4,9-dien-3-one] | – | – | 1 | – | – | – | 16.4 | 27.6 | – | – |
| CN(C)c1ccc([C@H]2C[C@@]3(C)[C@@H](CC[C@@]3(O)/C=C\CO)[C@@H]3CCC4=CC(=O)CC[C@@H]4[C@H]32)cc1 [Compound 5, Estr-4-en-3-one, 11-[4-(dimethylamino)phenyl]-17-hydroxy-17-(3-hydroxy-1-propenyl)-,[11.beta,17β,17(Z)]-(9CI)] | 4.1 | – | 1 | 6.0 | 6.7 | 10.7 | 18.7 | 37.2 | – | – |
| (Z)-6′-(4-Cyanophenyl)-17-β-hydroxy-17-α-(3-isovaleryloxy-1-propenyl))-9,11-α-diydro-4′H-naphth [3′,2′,1′:10,9,11]estr-4-en-3-one [Compound 6] | 2.9 | – | 1 | – | – | – | – | – | – | 5.9 |
